Data: patent publication US8987193B2, “Nisin derivatives and the use thereof” (University College Cork—National University of Ireland, Cork, priority 2008, dated 2015)
Entries after “also recorded” stand apart in the source; their conditions may differ. Ends that are not written are not given here.

Legend:
[1] = tested on: L. plantarum CBC6; assay: Deferred antagonism assay; format: cell-based, Lactobacillus plantarum; set-up: key: + = Enhanced bioactivity relative to control; − = Bioactivity equal to or less than control; NA = no activity evident; details: XX and XXX hinge mutant producers
Method: (§1) Deferred antagonism assays were performed by replicating strains on GM17 or GM17 x-gal agar plates and allowing them to grow overnight before overlaying with either GM17/BHI/TS/MH agar (0.75% w/v agar) seeded with the appropriate indicator strain. Zone size was calculated as the diameter of the zone of clearing minus the diameter of bacterial growth (5 mm) For higher throughput screening of N20PXX, XM21VX, XXK22T and XXX banks deferred antagonism assays were performed by replicating strains using a 96 pin replicator (Boekel) or spotting 5 μl of a fresh overnight culture on GM17 agar plates and allowing them to grow overnight. […] Additional sets of indicators were employed to further assess/reassess the bioactivity of a number of strains. […] For well-diffusion assays molten agar was cooled to 48° C. and seeded with the appropriate indicator strain. The inoculated medium was rapidly transferred into sterile Petri plates in 50 ml volumes, allowed to solidify and dried. Wells (4.6 mm in diameter) were then made in the seeded plates. Purified nisin and mutant nisins were resuspended in 0.005% acetic acid, serially diluted, 50 μl volumes were dispensed into the aforementioned wells and the plates incubated at 37° C. overnight. Bioactivity was expressed as arbitrary units/ml (AU/ml) and calculated as the reciprocal of the highest dilution that gave a definite zone multiplied by the conversion factor (i.e. 20 when 50 μl was used) (Ryan et al., 1996).
(§2) As a consequence of the enhanced activities of K22T and K22S, a more in-depth investigation of this region was carried out. Saturation mutagenesis was undertaken to create a bank of nisin A hinge derivatives containing the vast majority of possible amino acid substitutions for each position. Although pPTPL was used successfully for random mutagenesis, its relatively large size of approx 10.5 kb was considered unsuitable for the complete plasmid PCR amplification approach utilized for saturation mutagenesis. A smaller (approx 6 kb) E. coli-L. lactis shuttle vector pCI372 was considered to be potentially more useful. Its suitability with respect to the in trans expression of nisA was confirmed by the ability of pDFO5 to restore the nisin positive phenotype. Saturation mutagenesis was performed on each codon using pDF05 and oligonucleotides (Table 5) that replace the specific codon with a NNK triplet, potentially encoding all 20 standard amino acids. Following complete plasmid amplification and introduction into the intermediate Top10 host, sequence analysis of a pooled bank of pDF05 derivatives confirmed randomization. Introduction of these variants into L. lactis NZ9800 allowed the expression of mutant nisin A peptides for further analysis. […] 46 residue conversions were isolated. All strains, regardless of bioactivity, were assessed with a view to comprehensively assessing the consequences of each individual hinge alteration.

[2] = tested on: indicator strains; assay: Deferred antagonism assays, various indicator strains (summary); format: cell-based; details: for Target strain against which the hinge mutant was selected for enhanced bioactivity: XX and XXX banks, L. lactis HP*: enhanced or equal; for Target strain against which the hinge mutant was selected for enhanced bioactivity / Strain(s) against which the derivative (producing strain) displays enhanced bioactivity: relative to nisin A-producing control; for Strain(s) against which the derivative (producing strain) displays enhanced bioactivity: value = strains listed; for number of targets with enhanced activity: of the 8 additional targets tested
Method: as §1

[3] = tested on: L. monocytogenes CBC3; assay: Deferred antagonism assay; format: cell-based, Listeria monocytogenes; set-up: key: + = Enhanced bioactivity relative to control; − = Bioactivity equal to or less than control; NA = no activity evident; details: L. mono CBC3; XX and XXX hinge mutant producers
Method: as §1, §2

[4] = tested on: L. monocytogenes CBC2; assay: Deferred antagonism assay; format: cell-based, Listeria monocytogenes; set-up: key: + = Enhanced bioactivity relative to control; − = Bioactivity equal to or less than control; NA = no activity evident; details: L. mono CBC2; XX and XXX hinge mutant producers
Method: as §1, §2

[5] = tested on: L. monocytogenes CBC1; assay: Deferred antagonism assay; format: cell-based, Listeria monocytogenes; set-up: key: + = Enhanced bioactivity relative to control; − = Bioactivity equal to or less than control; NA = no activity evident; details: L. mono CBC1; XX and XXX hinge mutant producers
Method: as §1, §2

[6] = tested on: S. aureus CBC4; assay: Deferred antagonism assay; format: cell-based; set-up: key: + = Enhanced bioactivity relative to control; − = Bioactivity equal to or less than control; NA = no activity evident; details: XX and XXX hinge mutant producers
Method: as §1, §2

[7] = tested on: L. lactis CBC7; assay: Deferred antagonism assay; format: cell-based; set-up: key: + = Enhanced bioactivity relative to control; − = Bioactivity equal to or less than control; NA = no activity evident; details: XX and XXX hinge mutant producers
Method: as §1, §2

[8] = tested on: L. lactis CBC8; assay: Deferred antagonism assay; format: cell-based; set-up: key: + = Enhanced bioactivity relative to control; − = Bioactivity equal to or less than control; NA = no activity evident; details: XX and XXX hinge mutant producers
Method: as §1, §2

Substance	bioactivity relative to a nisin A-producing control [1]	Target strain against which the hinge mutant was selected for enhanced bioactivity [2]	Strain(s) against which the derivative (producing strain) displays enhanced bioactivity [2]	bioactivity relative to a nisin A-producing control [3]	bioactivity relative to a nisin A-producing control [4]	bioactivity relative to a nisin A-producing control [5]	bioactivity relative to a nisin A-producing control [6]	bioactivity relative to a nisin A-producing control [7]	bioactivity relative to a nisin A-producing control [8]	number of strains with bioactivity ([2]; of the 16 strains tested)	number of targets with enhanced activity [2]
NisinA PAA	−	C. sporogenes UCC1	C. sporogenes UCC1 and S. aureus CBC4	−	−	−	+	−	−		
NisinA PAK	−	Staph. aureus RF122/L. lactis HP*	S. aureus RF122 , CBC4 , NCDO1499 and DPC5246, L. lactis MG1363 , and L. monocytogenes 10403S and EGDe; also recorded: DPC5246, NCDO1499, L. mono 10403S and EGDe	−	−	−	+	−	−	7	
NisinA PAL (ITSISLCTPGCKTGALMGCPALTATCHCSIHVSK; not fully specified (bridges); also: lantibiotic nisin-A: lanthionine rings and dehydrated residues, places not given here; UniProt P13068 24-57, looked up, variant N20P M21A K22L) [nisin A hinge variant PAL (i.e. N20P, M21A, K22L)]	−	C. sporogenes UCC1	C. sporogenes UCC1, S. aureus CBC4, L. lactis CBC7 and CBC8, L. monocytogenes CBC2 and an additional 10 L. monocytogenes and 2 L. innocua; also recorded: C. sporogenes UCC1, L. mono CBC2, S. aureus CBC4, L. lactis	−	+	−	+	+	+		4
NisinA PAT (ITSISLCTPGCKTGALMGCPATTATCHCSIHVSK; not fully specified (bridges); also: lantibiotic nisin-A: lanthionine rings and dehydrated residues, places not given here; UniProt P13068 24-57, looked up, variant N20P M21A K22T) [nisin A hinge variant PAT (i.e. N20P, M21A, K22T)]	−	Strep. agalactiae ATCC 13813	S. agalactiae ATCC13813	−	−	−	−	−	−		
NisinA PIA	−	Staph. aureus RF122	B. cereus UCC1	−	−	−	−	−	−		
NisinA PIM	−	Staph. aureus RF122	B. cereus UCC1	−	−	−	−	−	−		
NisinA PLA (ITSISLCTPGCKTGALMGCPLATATCHCSIHVSK; not fully specified (bridges); also: lantibiotic nisin-A: lanthionine rings and dehydrated residues, places not given here; UniProt P13068 24-57, looked up, variant N20P M21L K22A) [nisin A hinge variant PLA (i.e. N20P, M21L, K22A)]	−	B. cereus UCC1	B. cereus UCC1 and S. aureus CBC4	−	−	−	+	−	−		
NisinA PMC	−	B. cereus UCC1	L. monocytogenes CBC3, S. aureus CBC4 and L. lactis CBC7; also recorded: L. mono CBC3, S. aureus CBC4, L. lactis CBC7	+	−	−	+	+	−		3
NisinA PML	−	Staph. aureus RF122	S. aureus RF122, L. monocytogenes CBC2 , CBC3, and CBC4 and L. lactis CBC7 and S. aureus RF122, L. mono CBC2, CBC3, CBC4, L. lactis and CBC7	+	+	−	+	+	−		4
NisinA PMM	−	Staph. aureus RF122	B. cereus UCC1; also recorded: B. cereus UCC	−	−	−	−	−	−		
